According to PMC4052115 (Journal of immunology (Baltimore, Md. : 1950), 2014):

What was measured:
DC2.4 cells = type: cell-based
[1] = biological target: H-2K^b (K^b heavy chain with β2-microglobulin), recombinant, refolded (mouse | not stated); assay: circular dichroism thermal denaturation
[2] = Immunogenicity in preliminary experiments; conditions: data not shown
[3] = test system: brain-derived CD8 T cells; assay: IFN-γ intracellular cytokine staining of brain-derived leukocytes; type: cell-based, C57BL/6 (B6) mice; conditions: brain-derived cells of rJ-infected mice, day 7 p.i.
[4] = test system: brain-derived CD8 T cells; conditions: ref [14]; cited from earlier work

## CSLWNGPHL [Epitope S510]
DC2.4 cells
  detection of peptide eluted from MHC complexes: neither peptide was detectable

## Q600F peptide (heteroclitic S598 analogue), Aba-modified (from UniProt P22432 598-605)
[1]
  Tm of the K^b/peptide complex: 62.7 °C

## RCEIFANI [Epitope Q600E]
[2]
  immunogenicity: not immunogenic

## RCYIFANI [Epitope Q600Y]
[3]
  fraction of S598-primed CD8 T cells recognizing the variant peptide: only a small fraction
[4]
  fraction of responding T cells that recognized only the variant epitope: ~ 35%

## S598 peptide (native epitope), Aba-modified
[1]
  Tm of the K^b/peptide complex: 56.2 °C

## TSYKFESV [Epitope B8_20-27]
DC2.4 cells
  level of VacV-derived control peptide: equivalently high levels
